The values that follow come from patent publication US20250326748A1, “COMPOUNDS AND METHODS FOR MODULATING SPLICING” (REMIX THERAPEUTICS INC., priority 2022, published 2025).

The test system of one series is K562 cells. The experiment in a line: Cell viability, Cell Titer Glo 2.0 assay, K562. Particulars: 72 hours. Background: In ATP-based viability assays light output follows the ATP content of the culture.
The next series has as its system HiBiT-tagged MYB protein. The experiment in a line: HiBiT protein abundance assay, MYB (K562 HiBiT knock-in). The class given is cell-based, human. Conditions: HiBiT knock-in cells, 24 hours. An outline of the steps: (§1)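 Endogenously HiBiT-tagged K562 knock-in lines treated 24 h at 37 °C with 10-point 3-fold dilutions (top 10 μM final, DMSO ≤0.25%) in IMDM+1% FBS. Lytic Nano-Glo luminescence normalized to DMSO and unmodified K562 controls; four-parameter fit gives 50%-abundance concentration (IC50).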
A general note: With HiBiT, luminescence reflects the tagged protein that the partner subunit can reach.

In another series the test system is HiBiT-tagged HTT protein. The experiment in a line: HiBiT protein abundance assay, HTT (K562 HiBiT knock-in). The class given is cell-based, human. Conditions: HiBiT knock-in cells, 24 hours. An outline of the steps:
as §1

The test system of a further series is Target C. The experiment in a line: HiBiT protein abundance assay, Target C (K562 HiBiT knock-in). Type of series: cell-based, human. Particulars: HiBiT knock-in cells, 24 hours. An outline of the steps: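 K562 HiBiT knock-in cells (10000/well) in IMDM + 1% FBS were treated for 24 h at 37° C. with a 10-point 3-fold dilution series (top 10 μM final), with DMSO ≤0.25%. Unmodified K562 served as baseline. HiBiT lytic luminescence was normalized to controls, and IC50 was interpolated at 50% from a four-parameter fit.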

For the molecule `Cc1c(O)c(-c2ccc3nc(N4CCC(N(C)C)CC4)cnc3n2)cc2cn(C)nc12` [Compound 198], in the series with K562 cells, the “Effect on Cell Viability, K562” value is given as “B (100-1000 nM)”. Moreover, the results for the IC50 in the series on HiBiT-tagged MYB protein, in the series with HiBiT-tagged HTT protein and with Target C were 100 to 1000 nM, 1000 to 10000 nM and 1000 to 10000 nM, respectively.
Take `Cc1cn2cc(-c3cnc4nc(C5CCNCC5)ccc4c3)cc(C)c2n1` [Compound 201]: in the series on K562 cells, the “Effect on Cell Viability, K562” value was “C (1000-9999 nM)”. For the same molecule, the IC50 (in general, the concentration that inhibits the measured activity by half) with HiBiT-tagged MYB protein was 1000 to 10000 nM; with HiBiT-tagged HTT protein, > 10000 nM; in the series on Target C it was > 10000 nM.
For `CN[C@@H]1CCN(c2cnc3nc(-c4cc(F)c5nc(C)cn5c4)ncc3c2)C1` [Compound 202, (3R)-1-(2-{8-fluoro-2-methylimidazo[1,2-a]pyridin-6-yl}pyrido[2,3-d]pyrimidin-6-yl)-N-methylpyrrolidin-3-amine], the “Effect on Cell Viability, K562” value in the series with K562 cells is “B (100-1000 nM)”. Besides, the IC50 in the series on HiBiT-tagged MYB protein is < 100 nM; in the series with HiBiT-tagged HTT protein, 100 to 1000 nM; with Target C, 100 to 1000 nM.
As to `CC1CN(c2cnc3nc(-c4cc(F)c5nn(C)cc5c4)cc(Cl)c3c2)CCN1` (stereo not shown) [Compound 203, 4-chloro-2-(7-fluoro-2-methyl-2H-indazol-5-yl)-6-(3-methylpiperazin-1-yl)-1,8-naphthyridine 2,2,2-trifluoroacetate], the “Effect on Cell Viability, K562” value in the series on K562 cells was “B (100-1000 nM)”. Moreover, the IC50 in the series with HiBiT-tagged MYB protein fell in the range of 100 to 1000 nM; with HiBiT-tagged HTT protein, 100 to 1000 nM; in the series with Target C it was 1000 to 10000 nM.
As for `Cc1c(O)c(-c2cc(Cl)c3cc(N(C)C4CCNC4)cnc3n2)cc2cn(C)nc12` (stereo not shown) [Compound 204, 5-[4-chloro-6-(367pyrrolidine-3-ylamino)-1,8-naphthyridin-2-yl]-2,7-dimethylindazol-6-ol], the “Effect on Cell Viability, K562” value with K562 cells is on record as “B (100-1000 nM)”. For the same molecule, the IC50 with HiBiT-tagged MYB protein lay in the range of 100 to 1000 nM; in the series with HiBiT-tagged HTT protein, 100 to 1000 nM; in the series on Target C, 1000 to 10000 nM.
As for `C[C@@H]1CN(c2cnc3nc(-c4cc5cn(C)nc5c(F)c4O)ccc3c2)C[C@H](C)N1` [Compound 206], the “Effect on Cell Viability, K562” value in the series on K562 cells is recorded as “A (<100 nM)”. Also, the IC50 in the series with HiBiT-tagged MYB protein is < 100 nM; with HiBiT-tagged HTT protein, < 100 nM; with Target C, 100 to 1000 nM.
Consider `Cc1c(O)c(-c2cc(Cl)c3cc(N4C[C@@H](C)N[C@@H](C)C4)cnc3n2)cc2cn(C)nc12` [Compound 207, 5-{4-chloro-6-[(3R,5S)-3,5-dimethylpiperazin-1-yl]-1,8-naphthyridin-2-yl}-2,7-dimethylindazol-6-ol], for which the “Effect on Cell Viability, K562” value with K562 cells is recorded as “A (<100 nM)”. Further, the figures for the concentration for half-maximal inhibition (IC50) in the series with HiBiT-tagged MYB protein, in the series on HiBiT-tagged HTT protein and in the series with Target C were < 100 nM, < 100 nM and 100 to 1000 nM, respectively.
Turning to `C[C@@H]1CN(c2cnc3nc(-c4cc5cn(C)nc5cc4O)cc(Cl)c3c2)C[C@H](C)N1` [Compound 208], in the series on K562 cells, the “Effect on Cell Viability, K562” value is “B (100-1000 nM)”. The half-maximal inhibitory concentration (IC50) in the series on HiBiT-tagged MYB protein was < 100 nM; with HiBiT-tagged HTT protein it was 100 to 1000 nM; in the series on Target C, 1000 to 10000 nM.
The matching figures for `Cn1cc2cc(-c3cc(Cl)c4cc(N5CCNC(C6CC6)C5)cnc4n3)cc(F)c2n1` (stereo not shown) [Compound 209, 4-chloro-6-(3-cyclopropylpiperazin-1-yl)-2-(7-fluoro-2-methylindazol-5-yl)-1,8-naphthyridine]: “B (100-1000 nM)”, 100 to 1000 nM, 100 to 1000 nM and 1000 to 10000 nM.
Regarding `Cc1cn2nc(-c3ccc4cc(NC5CCNCC5)cnc4n3)cc(C)c2n1` [Compound 210, 7-{2,8-dimethylimidazo[1,2-b]pyridazin-6-yl}-N-(piperidin-4-yl)-1,8-naphthyridin-3-amine; trifluoroacetic acid], in the series on K562 cells, the “Effect on Cell Viability, K562” value is reported as “C (1000-9999 nM)”. The concentration for half-maximal inhibition (IC50) in the series with HiBiT-tagged MYB protein, in the series on HiBiT-tagged HTT protein and in the series with Target C was 1000 to 10000 nM throughout.
